Results taken from publication PMC12637173, “Investigation on LASSBio‐1971 and LASSBio‐1974 Cellular Cytotoxic Mechanism and Their Comparative DMPK Profile” (Archiv Der Pharmazie, 2025).
Read-outs that look alike come from different tables or passages of the source.

Legend:
NCI‐H292 (EGFRwt) [1] = experiment: Cell viability by MTT assay, NCI-H292; conditions: for IC50: read-out: cytotoxic activity, NCI-H292 (EGFRw.t.)
EGFR in PC‐9 (EGFRL858R) = experiment: EGFR activation by flow cytometry (Muse EGFR‐RTK Activation Dual Detection Kit); type: cell-based, human
Procedure: (§1) PC‐9 (EGFRL858R) cell line was seeded at 1 × 10^5 cells/well in a 24‐well plate. […] All flow cytometry assays were performed using Guava Muse Cell Analyzer (Cytek Biosciences) following each kit user's guide provided by the manufacturer. Muse Cell Cycle Kit (catalog no. MCH100106) was chosen to evaluate cell cycle arresting. Apoptosis features were evaluated using Muse Annexin V & Dead Cell Kit (catalog no. MCH100105), as well as inactivation of EGFR using Muse EGFR‐RTK Activation Dual Detection Kit (catalog no. MCH200102). Statistical analysis was performed using one‐way ANOVA on data collected in duplicate from at least two independent experiments (n ≥ 2), employing GraphPad Prism software (version 8.0).

PC‐9 (EGFRL858R) [2] = experiment: Cell viability by MTT assay, PC-9; conditions: for IC50: read-out: cytotoxic activity, PC-9 (EGFRL858R)
[3] = test system: NCI‐H1975 (EGFRL858R/T790M); experiment: Cell viability by MTT assay, NCI-H1975; conditions: Homo sapiens; for IC50: read-out: cytotoxic activity, NCI-H1975 (EGFRL858R/T790M); for CC50: NCI-H1975, 72 h, read-out: cytotoxic activity CC50, NCI‐H1975 (EGFRL858R/T790M)
PC‐9 (EGFRL858R) [4] = experiment: Apoptosis by flow cytometry (Muse Annexin V & Dead Cell Kit); type: cell-based, human; conditions: PC‐9, 72 h; for phosphatidylserine externalization and cell membrane permeabilization, share of the NSCLC cell population: LASSBio‐1974 10 µM, CA‐4 0.1 µM
Procedure: as §1

PC‐9 (EGFRL858R) [5] = experiment: Cell viability by sulforhodamine B (SRB) assay, PC-9; conditions: Homo sapiens, 72 h, read-out: cytotoxic activity CC50, PC‐9 (EGFRL858R)
NCI‐H292 (EGFRwt) [6] = experiment: Cell viability by sulforhodamine B (SRB) assay, NCI-H292; conditions: Homo sapiens, NCI-H292, 72 h, read-out: cytotoxic activity CC50, NCI‐H292 (EGFRwt)
EGFRL858R/T790M = test system: EGFRL858R/T790M; parameters: method as in PMID 30626888; conditions: in vitro enzymatic model; cited from earlier work
PAMPA‐GIT = type: in vitro ADME; conditions: PAMPA‐GIT; for Papp: mean ± standard deviation (n = 3), read-out: Pe. Exp. GIT
Procedure: (§2) The lipid mixture that impregnates the filter has a different constitution for the permeability tests for the BBB (brain lipid from pig extract in n‐dodecane) and the GIT (L‐α soy phosphatidylcholine in n‐dodecane). The optical density values obtained in the reading at each selected wavelength, for each of the compounds, were analyzed in comparison with the values of several controls within a calibration curve (≥ 7 drugs). In the case of the BBB, these values were used to elaborate an equation and determine the permeability coefficient (Pe), while GIT used absorbed fraction (Fa%).

EGFRwt = test system: EGFRwt; parameters: method as in PMID 30626888; conditions: in vitro enzymatic model; cited from earlier work
EGFRL858R = test system: EGFRL858R; parameters: method as in PMID 30626888; conditions: in vitro enzymatic model; cited from earlier work
[7] = Microsomal metabolic stability; type: in vitro ADME, rat; conditions: for Metabolism rate: RLM 1 mg/mL, 10 μM, 60 min; for half-life at 10 µM / microsomal CLint at 10 µM: rat, rat liver microsomes
Procedure: The metabolic stability of compounds LASSBio‐1971 (1) and LASSBio‐1974 (2) (10 μM) was incubated in 1 mg/mL of rat microsomes in the presence and absence of the cofactor (i.e., NADPH‐generating system) at the same concentrations as in the previous section. After mixing and incubating at 37°C in a shaking water bath for 1 h, 500 µL cold acetonitrile containing the internal standard was added to terminate the reaction at different time intervals (0, 15, 30, 45, and 60 min).

[8] = test system: NCI‐H1975 (EGFRL858R/T790M); experiment: Cell viability by sulforhodamine B (SRB) assay, NCI-H1975; type: cell-based; conditions: Homo sapiens, 72 h, read-out: cytotoxic activity CC50, NCI‐H1975 (EGFRL858R/T790M)
PC‐9 (EGFRL858R) [9] = experiment: Cell cycle by flow cytometry (Muse Cell Cycle Kit); type: cell-based, human; conditions: PC‐9, 24 h
Procedure: as §1

PAMPA‐BBB = type: in vitro ADME; conditions: for Classification BBB / Pe. Exp. BBB / Papp: PAMPA‐BBB; for Pe. Exp. BBB / Papp: mean ± standard deviation (n = 3); for Papp: read-out: Pe. Exp. BBB
Procedure: as §2

[10] = PAMPA-GIT, standard drugs; literature value, ref not given; cited from earlier work
[11] = Conjugation with glutathione in rat liver microsomes; type: in vitro ADME; conditions: RLM 1 mg/mL, 10 μM, 2 mM GSH, 60 min, LC/MS/MS
Procedure: Incubation with pooled RLMs (1 mg/mL protein) was conducted in 50 mM potassium phosphate buffer (pH 7.4) at 37°C in an incubator for 60 min. LASSBio‐1971 (1) and P‐chlorophenyl isocyanate (10 μM) and 2 mM GSH were added to the buffer. The incubation was initiated by NADPH‐generating system consisting of 40 mM NADP^+, 350 mM glucose‐6‐phosphate, 5 units/mL glucose‐6‐phosphate dehydrogenase, and 130 mM MgCl2. The incubation was terminated at 60 min by the addition of 1 mL of ACN (with 6% of formic acid, with a total volume of 1.25 mL). The quenched sample was then centrifuged at 10,500 × g for 15 min, and 1 mL of the supernatant was collected to be injected into the Q‐Exactive Plus ESI MS System (Thermo Scientific, USA).

[12] = Homo sapiens, 72 h, read-out: cytotoxic activity CC50, PC‐9 (EGFRL858R)
[13] = Homo sapiens, NCI-H292, 72 h, read-out: cytotoxic activity CC50, NCI‐H292 (EGFRwt), MTT, 72 h
[14] = PC‐9, at respective CC50, compared to vehicle (DMSO 1%)
[15] = NADPH regenerator system: Absence
[16] = NADPH regenerator system: Presence
[17] = RLM, NADPH regenerator system: Absence
[18] = RLM, NADPH regenerator system: Presence

| Compound | IC50 (NCI‐H292 (EGFRwt) [1]; Homo sapiens, NCI-H292, 48 h) [µM] | IC50 (PC‐9 (EGFRL858R) [2]; Homo sapiens, 24 h) [µM] | IC50 (PC‐9 (EGFRL858R) [2]; Homo sapiens, 48 h) [µM] | CC50 (PC‐9 (EGFRL858R) [2]; [12]) [µM] | IC50 ([3]; NCI-H1975, 24 h) [µM] | IC50 ([3]; NCI-H1975, 48 h) [µM] | CC50 [3] [µM] | CC50 (PC‐9 (EGFRL858R) [5]) [µM] | CC50 (NCI‐H292 (EGFRwt) [6]) [µM] | IC50 (NCI‐H292 (EGFRwt) [1]; Homo sapiens, NCI-H292, 24 h) [µM] | CC50 (NCI‐H292 (EGFRwt) [1]; [13]) [µM] | IC50 (EGFRL858R/T790M) [µM] | inhibition of phosphorylation and activation of EGFR (EGFR in PC‐9 (EGFRL858R); [14]) | Classification GIT (PAMPA‐GIT) | Fa (absorbed fraction) (PAMPA‐GIT) [%] | Papp (PAMPA‐GIT) [×10⁻⁶ cm/s] | IC50 (EGFRwt) [µM] | IC50 (EGFRL858R) [µM] | phosphatidylserine externalization and cell membrane permeabilization, share of the NSCLC cell population (PC‐9 (EGFRL858R) [4]) [%] | Metabolism rate [7, 15] [%] | other results |
| --- | --- | --- | --- | --- | --- | --- | --- | --- | --- | --- | --- | --- | --- | --- | --- | --- | --- | --- | --- | --- | --- |
| C=CC(=O)Nc1cc(Nc2nccc(-c3cn(C)c4ccccc34)n2)c(OC)cc1N(C)CCN(C)C [Osimertinib, osimertinib, reference compound] | 6.81 | 8.32 | 0.17 | 0.05 | […] | […] | […] | 0.07 | 6.86 | – | – | – | – | – | – | – | – | – | – | – | CC50 (NCI‐H292 (EGFRwt) [1]; Homo sapiens, NCI-H292, 72 h, read-out: cytotoxic activity CC50, NCI‐H292 (EGFRwt)): 6.3 µM; inhibition of phosphorylation and activation of EGFR (EGFR in PC‐9 (EGFRL858R)): inhibited phosphorylation; increase in the population of cells undergoing apoptosis (PC‐9 (EGFRL858R) [4]; at their CC50): […] |
| CN(C)C/C=C/C(=O)Nc1ccc2ncc(NC(=O)Nc3ccccc3)nc2c1 [LASSBio‐1974 (2)] | 7.25 | 9.74 | 1.22 | 1.1 | 38 | 6.58 | 7.09 | 1.22 | 8.99 | 16.4 | 4.98 | 0.132 ± 0.049 | inhibit phosphorylation | Low (low permeability (0%–29%)) | 26.78 | 0.82 ± 0.47 | 0.101 ± 0.012 | 0.032 ± 0.014 | ~90 | 10.78 | Metabolism rate [7, 16]: 83.11%; Elimination rate constant (k) [7, 17]: 0.0016; Elimination rate constant (k) [7, 18]: 0.1172; half-life at 10 µM [7, 17]: 433 min; microsomal CLint at 10 µM [7, 17]: 0.4 µL/min/mg; half-life at 10 µM [7, 18]: 5.91 min; microsomal CLint at 10 µM [7, 18]: 29.3 µL/min/mg; CC50 [8]: 20.5 µM; cell cycle arrest phase (PC‐9 (EGFRL858R) [9]; 1 µM): cycle arresting in the G0/G1 phase; cell cycle arrest phase (PC‐9 (EGFRL858R) [9]; 10 µM): cell cycle arrest in G2/M phase; Classification BBB (PAMPA‐BBB): CNS ±; Pe. Exp. BBB (PAMPA‐BBB): 2.37 10^−6 cm/s; Papp (PAMPA‐BBB): 2.37 ± 0.44 ×10⁻⁶ cm/s |
| COc1ccc(/C=C\c2cc(OC)c(OC)c(OC)c2)cc1O [combretastatin A4, reference compound] | – | – | – | – | – | – | – | – | – | – | – | – | – | – | – | – | – | – | ~60 | – | CC50 (PC‐9 (EGFRL858R) [2]; read-out: CC50 stated in figure legend, PC‐9, CC50 given as concentration used in flow cytometry, assay and time not stated): 0.1 µM |
| Cn1c(=O)c2c(ncn2C)n(C)c1=O [Caffeine, reference compound] | – | – | – | – | – | – | – | – | – | – | – | – | – | – | – | – | – | – | – | – | Classification (PAMPA‐BBB; PAMPA-BBB, standard drugs used as control): CNS - |
| O=C(O)c1cc(/N=N/c2ccc(S(=O)(=O)Nc3ccccn3)cc2)ccc1O [Sulfasalazine] | – | – | – | – | – | – | – | – | – | – | – | – | – | – | – | – | – | – | – | – | Fa lit. [10]: 42%; Pe literature [10]: 0.30 10^-6 cm s^-1 |
| C=CC(=O)Nc1ccc2ncc(NC(=O)Nc3ccccc3)nc2c1 [LASSBio‐1971 (1)] | 8.85 | 6.42 | 0.14 | 0.13 | 51.3 | 6.45 | 5.1 | 1.02 | 4.95 | 18.4 | 1.5 | 1.68 ± 1.51 | inhibit phosphorylation | High (high intestinal permeability (70%–100%)) | 94.62 | 7.69 ± 0.7 | 0.025 ± 0.004 | 0.018 ± 0.003 | – | 21.99 | CC50 (NCI‐H292 (EGFRwt) [1]; read-out: cytotoxic activity CC50, NCI‐H292 (EGFRwt), MTT, 72 h): 1.51 µM; covalent adduct formation with glutathione [11]: a covalent adduct between glutathione and LASSBio‐1971 (1) was formed; apoptosis phenotype induction (PC‐9 (EGFRL858R) [4]): could not induce an apoptosis phenotype; Metabolism rate [7, 16]: 53.93%; Elimination rate constant (k) [7, 17]: 0.0039; Elimination rate constant (k) [7, 18]: 0.0129; t 1/2 [7, 18]: 53.72 min; half-life at 10 µM [7, 17]: 178 min; microsomal CLint at 10 µM [7, 17]: 0.975 µL/min/mg; half-life at 10 µM [7, 18]: 53.7 min; microsomal CLint at 10 µM [7, 18]: 3.23 µL/min/mg; CC50 [8]: 18.5 µM; cell cycle arrest phase (PC‐9 (EGFRL858R) [9]; 1 µM): G0/G1 phase arrest; Classification BBB (PAMPA‐BBB): CNS +; Pe. Exp. BBB (PAMPA‐BBB): 4.16 10^−6 cm/s; Papp (PAMPA‐BBB): 4.16 ± 1.84 ×10⁻⁶ cm/s |
